Measured values published in ChEMBL document CHEMBL4823249, “Discovery of a Pyrimidinedione Derivative as a Potent and Orally Bioavailable Axl Inhibitor” (J Med Chem, 2021).
Activity calls are given as the source filed them. The calls are words filed in the database; no cut-off is given here.

Tests used:
[1] = system: HCC4006; test: Antiproliferative activity against human HCC4006 cells incubated for 72 hrs by SRB or CCK8 assay; type: functional, cell-based; settings: HCC4006, 72 h
[2] = system: HL-60; test: Antiproliferative activity against human HL-60 cells incubated for 72 hrs by SRB or CCK8 assay; type: functional, cell-based; settings: HL-60, 72 h
[3] = target: T1, Tyrosine-protein kinase receptor UFO (Homo sapiens, UniProt P30530); test: Inhibition of AXL (unknown origin) using poly [Glu, Tyr] 4:1 as substrate incubated for 60 mins in presence of ATP by ELISA
T1 sequence (P30530 whole entry): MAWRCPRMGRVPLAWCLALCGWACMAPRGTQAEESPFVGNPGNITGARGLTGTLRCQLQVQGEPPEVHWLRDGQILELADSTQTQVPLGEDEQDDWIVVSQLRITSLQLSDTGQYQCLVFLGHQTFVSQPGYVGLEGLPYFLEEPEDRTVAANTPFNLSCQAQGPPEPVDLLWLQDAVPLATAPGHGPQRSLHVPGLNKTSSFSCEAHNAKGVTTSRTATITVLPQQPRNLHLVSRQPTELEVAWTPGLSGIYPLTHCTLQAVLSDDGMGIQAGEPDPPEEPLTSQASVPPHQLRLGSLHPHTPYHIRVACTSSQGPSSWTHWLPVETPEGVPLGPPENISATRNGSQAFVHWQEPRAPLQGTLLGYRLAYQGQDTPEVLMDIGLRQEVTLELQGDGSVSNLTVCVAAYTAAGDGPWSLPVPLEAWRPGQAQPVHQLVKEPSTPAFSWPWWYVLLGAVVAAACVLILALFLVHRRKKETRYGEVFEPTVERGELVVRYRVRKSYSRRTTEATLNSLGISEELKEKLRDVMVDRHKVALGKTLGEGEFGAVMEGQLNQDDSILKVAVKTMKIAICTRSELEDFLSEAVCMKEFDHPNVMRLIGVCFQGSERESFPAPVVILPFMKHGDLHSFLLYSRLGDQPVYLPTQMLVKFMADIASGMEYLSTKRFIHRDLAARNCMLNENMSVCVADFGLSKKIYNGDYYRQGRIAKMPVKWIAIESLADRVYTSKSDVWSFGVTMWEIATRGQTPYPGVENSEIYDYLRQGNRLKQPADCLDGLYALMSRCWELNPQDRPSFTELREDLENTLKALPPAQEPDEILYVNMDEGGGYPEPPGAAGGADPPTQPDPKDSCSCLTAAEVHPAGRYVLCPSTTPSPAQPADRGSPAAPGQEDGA

[4] = target: Hepatocyte growth factor receptor (Homo sapiens, UniProt P08581); test: Inhibition of MET signaling in human MKN45 cells assessed as reduction in phosphorylation of AKT after 2 hrs by Western blotting analysis; type: cell-based; settings: MKN-45, dose 10-100 nM
[5] = Inhibition of recombinant human PKA using Kemptide as substrate measured after 40 mins in presence of [gamma33P]ATP by scintillation counting based radiometry assay
[6] = system: BT-549; test: Antiproliferative activity against human BT-549 cells incubated for 72 hrs by SRB or CCK8 assay; type: functional, cell-based; settings: BT-549, 72 h
[7] = target: Epidermal growth factor receptor (Homo sapiens, UniProt P00533); test: Inhibition of recombinant human EGFR (696 to end residues) using poly(Glu, Tyr) 4:1 as substrate incubated for 40 mins in presence of [gamma-33ATP] by scintillation counting based radiometry assay
[8] = target: T2, Tyrosine-protein kinase receptor UFO (Mus musculus) (UniProt Q00993); test: Inhibition of AXL in mouse BaF3/TEL-AXL cells assessed as reduction in phosphorylation of AXL at 1 to 15 nM after 2 hrs by Western blotting analysis; type: cell-based; settings: dose 1-15 nM
T2 sequence (whole entry): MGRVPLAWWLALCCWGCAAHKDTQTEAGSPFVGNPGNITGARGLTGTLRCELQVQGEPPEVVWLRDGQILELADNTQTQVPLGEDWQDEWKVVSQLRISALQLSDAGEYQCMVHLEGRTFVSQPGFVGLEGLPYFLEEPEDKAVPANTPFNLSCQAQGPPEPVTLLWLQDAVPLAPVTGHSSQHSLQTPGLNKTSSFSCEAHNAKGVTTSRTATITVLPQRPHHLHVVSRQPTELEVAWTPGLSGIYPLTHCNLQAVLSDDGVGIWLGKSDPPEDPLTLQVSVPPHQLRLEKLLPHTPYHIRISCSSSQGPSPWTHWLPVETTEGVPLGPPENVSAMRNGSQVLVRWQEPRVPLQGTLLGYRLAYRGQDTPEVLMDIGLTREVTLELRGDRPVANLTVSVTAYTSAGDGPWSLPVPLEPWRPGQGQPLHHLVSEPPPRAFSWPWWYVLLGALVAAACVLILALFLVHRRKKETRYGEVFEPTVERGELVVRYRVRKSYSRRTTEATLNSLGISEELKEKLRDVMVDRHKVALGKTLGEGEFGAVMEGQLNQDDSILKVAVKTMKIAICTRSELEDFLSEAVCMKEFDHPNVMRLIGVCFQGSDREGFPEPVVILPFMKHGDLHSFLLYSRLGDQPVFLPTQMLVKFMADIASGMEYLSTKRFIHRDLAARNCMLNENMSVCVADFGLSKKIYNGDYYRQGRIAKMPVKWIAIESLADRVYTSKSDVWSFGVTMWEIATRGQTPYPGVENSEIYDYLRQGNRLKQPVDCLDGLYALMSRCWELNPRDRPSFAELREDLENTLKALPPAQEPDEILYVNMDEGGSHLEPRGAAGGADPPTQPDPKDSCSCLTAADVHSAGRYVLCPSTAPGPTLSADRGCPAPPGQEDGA

[9] = target: Tyrosine-protein kinase JAK1 (Homo sapiens, UniProt P23458); test: Inhibition of human JAK1 (866 to end residues) using GEEPLYWSFPAKKK as substrate after 40 mins in presence of [gamma-33ATP] by scintillation counting based radiometry assay
[10] = system: U-87 MG; test: Antitumor activity against human U-87MG cells xenografted in BALB/c nude mouse assessed as tumor growth inhibition at 5 mg/kg, po administered once daily for 14 days by caliper method; type: functional, U-87MG ATCC; settings: 336 h, time 14 day, read-out: TGI
[11] = Half life in ICR mouse at 3 mg/kg, po measured upto 24 hrs by LC-MS analysis; type: ADME, organism-based; settings: in vivo
[12] = target: T2, Tyrosine-protein kinase receptor UFO (Mus musculus); test: Inhibition of AXL in mouse BaF3/TEL-AXL cells assessed as reduction in Gas6-induced phosphorylation of AXL at 0.5 to 50 nM preincubated for 2 hrs followed by Gas6 stimulation for 15 mins by Western blotting analysis; type: cell-based; settings: dose 0.5-50 nM
[13] = system: RT-112; test: Antiproliferative activity against human RT-112 cells incubated for 72 hrs by SRB or CCK8 assay; type: functional, cell-based; settings: RT-112, 72 h
[14] = Clearance in ICR mouse at 1 mg/kg, iv measured upto 24 hrs by LC-MS analysis; type: ADME, organism-based; settings: in vivo
[15] = target: CDK2/Cyclin A2 (Homo sapiens, UniProt P24941); test: Inhibition of full length human recombinant CDK2/Cyclin A using histone H1 as substrate incubated for 40 mins in presence of [gamma-33ATP] by radiometric scintillation counting analysis; type: protein-complex assay

Chain of Tyrosine-protein kinase JAK1 (P23458 whole entry): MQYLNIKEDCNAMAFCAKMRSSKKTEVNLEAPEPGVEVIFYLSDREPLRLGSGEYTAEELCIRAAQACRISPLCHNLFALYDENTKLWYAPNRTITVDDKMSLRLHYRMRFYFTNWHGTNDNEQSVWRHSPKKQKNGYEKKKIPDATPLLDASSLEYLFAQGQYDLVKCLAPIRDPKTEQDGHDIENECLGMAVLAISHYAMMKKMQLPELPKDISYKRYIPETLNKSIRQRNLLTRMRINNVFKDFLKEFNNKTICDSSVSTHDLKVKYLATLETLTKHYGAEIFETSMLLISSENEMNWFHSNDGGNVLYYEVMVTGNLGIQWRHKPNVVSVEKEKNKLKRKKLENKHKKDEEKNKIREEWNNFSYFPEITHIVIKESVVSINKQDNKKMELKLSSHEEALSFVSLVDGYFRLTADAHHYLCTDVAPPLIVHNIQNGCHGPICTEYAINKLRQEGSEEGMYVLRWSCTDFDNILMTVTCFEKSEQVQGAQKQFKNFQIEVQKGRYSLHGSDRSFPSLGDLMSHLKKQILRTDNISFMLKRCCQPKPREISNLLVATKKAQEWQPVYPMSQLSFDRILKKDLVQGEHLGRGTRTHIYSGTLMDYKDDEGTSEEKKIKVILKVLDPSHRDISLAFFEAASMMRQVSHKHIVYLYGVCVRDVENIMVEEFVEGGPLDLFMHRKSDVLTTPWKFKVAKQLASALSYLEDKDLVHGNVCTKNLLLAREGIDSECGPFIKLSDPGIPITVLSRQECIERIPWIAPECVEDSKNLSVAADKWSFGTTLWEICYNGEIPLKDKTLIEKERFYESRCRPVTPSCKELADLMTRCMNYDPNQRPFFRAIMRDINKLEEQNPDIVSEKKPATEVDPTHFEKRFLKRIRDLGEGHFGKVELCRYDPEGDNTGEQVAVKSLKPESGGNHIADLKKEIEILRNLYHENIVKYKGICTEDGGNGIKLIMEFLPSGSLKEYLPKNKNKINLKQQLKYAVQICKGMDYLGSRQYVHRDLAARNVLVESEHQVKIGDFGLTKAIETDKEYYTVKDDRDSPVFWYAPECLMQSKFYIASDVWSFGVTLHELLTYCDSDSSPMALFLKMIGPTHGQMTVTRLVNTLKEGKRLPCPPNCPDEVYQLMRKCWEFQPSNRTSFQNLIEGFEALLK
Chain of Epidermal growth factor receptor (P00533 whole entry): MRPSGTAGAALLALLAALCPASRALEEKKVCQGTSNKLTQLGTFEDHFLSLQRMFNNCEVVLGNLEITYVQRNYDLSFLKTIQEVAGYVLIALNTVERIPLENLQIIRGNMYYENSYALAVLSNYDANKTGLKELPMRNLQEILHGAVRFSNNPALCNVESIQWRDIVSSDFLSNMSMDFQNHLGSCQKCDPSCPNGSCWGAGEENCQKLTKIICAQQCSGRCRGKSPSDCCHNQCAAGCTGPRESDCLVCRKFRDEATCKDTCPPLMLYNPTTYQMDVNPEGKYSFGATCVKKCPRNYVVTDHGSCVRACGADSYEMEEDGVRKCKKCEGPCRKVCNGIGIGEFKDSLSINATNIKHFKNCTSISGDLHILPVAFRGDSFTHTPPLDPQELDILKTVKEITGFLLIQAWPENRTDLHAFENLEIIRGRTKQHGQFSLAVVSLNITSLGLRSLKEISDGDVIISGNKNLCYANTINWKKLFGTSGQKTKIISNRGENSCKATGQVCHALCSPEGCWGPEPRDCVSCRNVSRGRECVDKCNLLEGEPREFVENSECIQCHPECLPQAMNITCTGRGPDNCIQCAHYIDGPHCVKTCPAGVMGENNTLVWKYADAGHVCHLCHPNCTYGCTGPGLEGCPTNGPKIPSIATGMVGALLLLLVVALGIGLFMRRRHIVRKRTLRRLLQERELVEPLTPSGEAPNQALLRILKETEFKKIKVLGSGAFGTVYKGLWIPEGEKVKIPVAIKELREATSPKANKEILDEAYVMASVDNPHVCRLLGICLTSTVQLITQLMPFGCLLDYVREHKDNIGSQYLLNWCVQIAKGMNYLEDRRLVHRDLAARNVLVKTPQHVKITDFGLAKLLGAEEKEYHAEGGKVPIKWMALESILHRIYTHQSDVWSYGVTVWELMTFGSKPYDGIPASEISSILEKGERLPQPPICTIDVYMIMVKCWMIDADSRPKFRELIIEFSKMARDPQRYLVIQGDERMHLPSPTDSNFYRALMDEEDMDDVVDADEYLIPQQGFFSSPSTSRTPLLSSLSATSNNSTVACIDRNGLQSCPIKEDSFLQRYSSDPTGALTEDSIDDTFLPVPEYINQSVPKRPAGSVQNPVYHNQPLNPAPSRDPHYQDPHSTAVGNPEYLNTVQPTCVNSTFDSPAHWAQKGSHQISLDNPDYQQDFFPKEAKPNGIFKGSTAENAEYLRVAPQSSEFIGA
Chain of Hepatocyte growth factor receptor (P08581 whole entry): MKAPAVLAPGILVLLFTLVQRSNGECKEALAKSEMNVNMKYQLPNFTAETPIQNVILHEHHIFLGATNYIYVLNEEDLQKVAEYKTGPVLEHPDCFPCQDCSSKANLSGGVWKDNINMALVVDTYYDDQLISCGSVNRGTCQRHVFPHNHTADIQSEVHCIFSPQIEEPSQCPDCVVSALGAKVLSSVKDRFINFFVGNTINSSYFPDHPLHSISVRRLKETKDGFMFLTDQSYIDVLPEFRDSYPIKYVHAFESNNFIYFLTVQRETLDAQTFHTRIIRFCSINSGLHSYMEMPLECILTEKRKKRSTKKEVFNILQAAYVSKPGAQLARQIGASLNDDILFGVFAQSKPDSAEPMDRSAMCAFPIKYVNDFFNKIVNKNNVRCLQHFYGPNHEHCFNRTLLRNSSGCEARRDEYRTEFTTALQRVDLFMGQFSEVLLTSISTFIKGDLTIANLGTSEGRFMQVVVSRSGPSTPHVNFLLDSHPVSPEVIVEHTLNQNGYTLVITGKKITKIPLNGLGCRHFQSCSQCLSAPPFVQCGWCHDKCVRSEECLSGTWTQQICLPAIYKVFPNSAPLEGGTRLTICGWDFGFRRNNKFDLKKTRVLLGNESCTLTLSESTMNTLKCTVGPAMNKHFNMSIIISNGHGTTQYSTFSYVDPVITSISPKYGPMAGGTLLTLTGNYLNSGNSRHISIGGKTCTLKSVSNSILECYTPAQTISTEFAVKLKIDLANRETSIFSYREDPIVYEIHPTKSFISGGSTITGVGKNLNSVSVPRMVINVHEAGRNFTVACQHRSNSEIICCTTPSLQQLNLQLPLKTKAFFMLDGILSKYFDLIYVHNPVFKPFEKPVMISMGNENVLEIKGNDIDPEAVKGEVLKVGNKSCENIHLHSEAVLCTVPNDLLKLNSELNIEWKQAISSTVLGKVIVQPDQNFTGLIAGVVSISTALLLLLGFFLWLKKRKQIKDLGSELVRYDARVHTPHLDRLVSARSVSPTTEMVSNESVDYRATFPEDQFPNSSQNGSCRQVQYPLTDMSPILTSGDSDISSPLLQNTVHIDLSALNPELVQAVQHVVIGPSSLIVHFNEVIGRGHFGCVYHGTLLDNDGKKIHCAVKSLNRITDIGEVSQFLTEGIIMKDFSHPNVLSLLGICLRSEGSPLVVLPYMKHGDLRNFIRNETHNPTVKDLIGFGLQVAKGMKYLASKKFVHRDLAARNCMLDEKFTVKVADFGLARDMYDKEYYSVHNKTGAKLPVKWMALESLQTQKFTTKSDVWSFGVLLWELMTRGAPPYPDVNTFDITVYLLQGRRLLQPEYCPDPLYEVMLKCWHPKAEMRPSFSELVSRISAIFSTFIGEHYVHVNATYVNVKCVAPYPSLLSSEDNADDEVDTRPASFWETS

- IC50 [1]: > 10 µM
- IC50 [2]: > 10 µM
- IC50 [3]: 0.0009 µM
- inhibition [4]: Dose-Dependent Effect
- IC50 [5]: > 1 µM
- IC50 [6]: > 10 µM
- IC50 [7]: > 1 µM
- inhibition [8]: Active
- IC50 [9]: > 1 µM
- half-life [11]: 5.2 h
- inhibition [12]: Active
- clearance [14]: 0.137 L/h/kg
- IC50 [15]: > 1 µM
SMILES: CC(C)n1cc(C(=O)Nc2ccc(Oc3ccnc(NC(=O)C4CC4)c3)c(F)c2)c(=O)n(-c2ccc(F)cc2)c1=O
- inhibition in vivo at 5 mg/kg [10]: 62.3%
- IC50 [13]: > 10 µM
